Data: US10118911B2, “P-toluenesulfonate for MEK kinase inhibitor, and crystal form thereof and preparation method therefor” (Jiangsu Hengrui Medicine Co., Ltd., priority 2015, dated 2018)
Blank lines part the entries; values can stand above or below the molecule they belong to.

Columns and labels:
[1] = Stability of crystal form I spread flat in the air under lighting, heating and high humidity, purity detected by HPLC; format: physicochemical; conditions: for stability (in words): lighting, high temperature, high humidity, p-toluenesulfonate
Method: The product sample of crystal form I prepared in Example 2 was spread flat in the air, to test its stability under conditions of lighting, heating (40° C., 60° C.), and high humidity (RH 75%, RH 90%). Samplings were carried out on Day 5 and Day 10.

[2] = Special stability study of crystal form I (grinding, heating, pressing); format: physicochemical
Excerpt: Crystal form I of the compound of formula (I) prepared according to the method of Example 2 was ground, heated and pressed.

MEK kinase = conditions: from PCT/CN2014/085976 of the applicant; cited from earlier work
[3] = Solubility compared to the free base; format: physicochemical
[4] = Bioavailability compared to the free base; format: in vivo
[5] = after grinding treatment for 10 min in a mortar under nitrogen atmosphere
[6] = after heating treatment for 3 h at 80° C.
[7] = after pressing treatment (pressed to a slice)

purity detected by HPLC ([1]; 40° C., day 0): 98.86% | purity detected by HPLC ([1]; 40° C., day 5): 98.85% | purity detected by HPLC ([1]; 40° C., day 10): 98.88% | purity detected by HPLC ([1]; 60° C., day 0): 98.86% | purity detected by HPLC ([1]; 60° C., day 5): 98.89% | purity detected by HPLC ([1]; 60° C., day 10): 98.88% | purity detected by HPLC ([1]; 4500 Lux, day 0): 98.86% | purity detected by HPLC ([1]; 4500 Lux, day 5): 99.08% | purity detected by HPLC ([1]; 4500 Lux, day 10): 99.17% | purity detected by HPLC ([1]; RH75%, day 0): 98.86% | purity detected by HPLC ([1]; RH75%, day 5): 98.88% | purity detected by HPLC ([1]; RH75%, day 10): 98.88% | purity detected by HPLC ([1]; RH90%, day 0): 98.86% | purity detected by HPLC ([1]; RH90%, day 5): 98.86% | purity detected by HPLC ([1]; RH90%, day 10): 98.88% | stability (in words) ([1]; listed as crystal form I): good stability | stability (in words) [1]: stable | Crystal form [2, 5]: form I | DSC peak [2, 5]: 237.66 °C | Crystal form [2, 6]: form I | DSC peak [2, 6]: 237.45 °C | Crystal form [2, 7]: form I | DSC peak [2, 7]: 237.75 °C | stability of the crystal form (in words) ([2]; grinding, pressure and heating): stable
Compound: Cc1ccc(Oc2cc(=O)n(C)c(Nc3ccc(I)cc3F)c2C(N)=O)cn1.Cc1ccc(S(=O)(=O)O)cc1 [2-((2-fluoro-4-iodophenyl)amino)-1-methyl-4-((6-methylpyridin-3-yl)oxy)-6-oxo-1,6-di hydropyridine-3-carboxamide p-toluenesulfonate]

Compound: Cc1ccc(Oc2cc(=O)n(C)c(Nc3ccc(I)cc3F)c2C(N)=O)cn1 [Example 1, 2-((2-fluoro-4-iodophenyl)amino)-1-methyl-4-((6-methylpyridin-3-yl)oxy)-6-oxo-1,6-dihydropyridine-3-carboxamide]
inhibitory activity against MEK kinase (MEK kinase): strong inhibitory activity

solubility [3]: greatly improved | bioavailability [4]: greatly improved
Compound: Cc1ccc(Oc2cc(=O)n(C)c(Nc3ccc(I)cc3F)c2C(N)=O)cn1.Cc1ccc(S(=O)(=O)O)cc1 [compound of formula (I), 2-((2-fluoro-4-iodophenyl)amino)-1-methyl-4-((6-methylpyridin-3-yl)oxy)-6-oxo-1,6-di hydropyridine-3-carboxamide p-toluenesulfonate]
